Structures can show the parent of a compound that is named as a salt. Where only a bound is given, the exact number is not on record here.

This note sets out measurements from US20240158393A1, “PYRIDONE COMPOUNDS AND METHODS OF USE” (Exelixis, Inc., priority 2021, published 2024).

Experiment [1] has as its target T1, Human Met (Homo sapiens, UniProt P08581).
T1 construct: Human MET (residues 956-1390)
The experiment in a line: Human Met kinase assay (33P radiometric / HTRF KinEase). The class given is biochemical. The conditions noted are these: protocols of Examples D-1 and/or D-2; read-out: c-Met IC50. In short, it runs like this: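 Two formats gave IC50s by curve fitting. HTRF KinEase used MET residues 956-1390 with 1 μM biotin-peptide and 3.0 μM ATP (Km) for 40 min at room temperature, ten doses in 3% DMSO, 665/620 nm read. The 33P transfer assay used mutant Met R974-S1390 A1209G/V1290L (3.4 nM), 10 μM ATP, 250 μM peptide, pH 7.0, 40 min, nine doses from 1 μM.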
(In general: In TR-FRET formats the signal depends on donor and acceptor labels being close together.)

Experiment [2] addresses T2, Human KDR (Homo sapiens, UniProt P35968).
T2 construct: Human KDR (residues K790-V1356, 55 nM); purchased Eurofins Pharma Discovery Services UK Limited (KinaseProfiler, B-1) and/or CarnaBio (B-2)
As to the kind of experiment: Human KDR kinase assay (33P radiometric / HTRF KinEase). The class given is biochemical. As to conditions: protocols of Examples B-1 and/or B-2. In short, it runs like this: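 Radiometric: KDR K790-V1356 (55 nM), MOPS pH 7.0, myelin basic protein, 10 μM [γ-33P]ATP, 40 min at room temperature, filter-bound 33P counted; nine half-log doses, top 1 μM. HTRF: KDR 790-1356, 1 μM biotinylated peptide, ATP at Km (4.0 μM), 40 min, 10 doses. IC50 from logistic fits.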

T2 sequence (P35968 790-1356): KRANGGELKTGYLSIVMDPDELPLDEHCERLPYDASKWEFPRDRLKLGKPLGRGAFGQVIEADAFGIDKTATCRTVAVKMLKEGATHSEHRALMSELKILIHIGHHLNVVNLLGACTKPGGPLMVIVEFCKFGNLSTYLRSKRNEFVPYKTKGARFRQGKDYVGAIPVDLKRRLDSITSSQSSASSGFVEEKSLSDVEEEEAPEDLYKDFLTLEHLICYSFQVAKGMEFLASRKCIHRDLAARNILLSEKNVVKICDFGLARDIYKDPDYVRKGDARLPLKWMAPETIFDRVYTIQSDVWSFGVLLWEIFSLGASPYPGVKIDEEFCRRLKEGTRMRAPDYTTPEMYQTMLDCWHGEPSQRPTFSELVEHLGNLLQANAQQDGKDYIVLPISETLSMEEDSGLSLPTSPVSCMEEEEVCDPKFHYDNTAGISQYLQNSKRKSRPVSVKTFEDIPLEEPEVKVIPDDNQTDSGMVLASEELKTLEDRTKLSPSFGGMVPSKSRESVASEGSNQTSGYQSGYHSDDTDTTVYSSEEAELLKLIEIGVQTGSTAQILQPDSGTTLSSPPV
T1 sequence (P08581 974-1390 limits assumed): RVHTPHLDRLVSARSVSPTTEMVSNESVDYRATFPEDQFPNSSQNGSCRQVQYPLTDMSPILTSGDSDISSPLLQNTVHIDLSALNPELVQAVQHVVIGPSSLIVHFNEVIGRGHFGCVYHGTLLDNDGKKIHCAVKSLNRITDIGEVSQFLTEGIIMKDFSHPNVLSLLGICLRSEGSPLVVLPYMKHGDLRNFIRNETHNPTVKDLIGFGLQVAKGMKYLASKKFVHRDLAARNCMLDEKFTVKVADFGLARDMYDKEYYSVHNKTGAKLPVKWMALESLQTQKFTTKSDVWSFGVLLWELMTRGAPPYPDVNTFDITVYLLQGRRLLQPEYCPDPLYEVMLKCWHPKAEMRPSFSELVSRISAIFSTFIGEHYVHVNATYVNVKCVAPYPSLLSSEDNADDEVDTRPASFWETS

`COc1cc2nccc(Oc3ccc(NC(=O)c4cn(C)c(C)c(C5=CCCC5)c4=O)cc3F)c2nc1OC` [Compound 1, 5-(Cyclopenten-1-yl)-N-[4-[(6,7-dimethoxy-1,5-naphthyridin-4-yl)oxy]-3-fluorophenyl]-1,6-dimethyl-4-oxopyridine-3-carboxamide]: the IC50 in experiment [1] and in experiment [2] was no more than 0.1 µM each time.

With `COc1cc2nccc(Oc3ccc(NC(=O)c4c(C)nc(C)c(C5=CCCC5)c4O)cc3F)c2nc1OC` [Compound 1-2, 5-(Cyclopenten-1-yl)-N-[4-[(6,7-dimethoxy-1,5-naphthyridin-4-yl)oxy]-3-fluorophenyl]-4-hydroxy-2,6-dimethylpyridine-3-carboxamide hydrochloride], the IC50 in experiment [1] and in experiment [2] was no more than 0.1 µM throughout.

Turning to `COc1cc2nccc(Oc3ccc(NC(=O)c4cnc(C)c(C5=CCOCC5)c4O)cc3F)c2nc1OC` [Compound 1-3, 5-(3,6-Dihydro-2H-pyran-4-yl)-N-[4-[(6,7-dimethoxy-1,5-naphthyridin-4-yl)oxy]-3-fluorophenyl]-4-hydroxy-6-methylpyridine-3-carboxamide], the IC50 in experiment [1] and in experiment [2] was no more than 0.1 µM in each case.

Turning to `COc1cnc2c(Oc3ccc(NC(=O)c4cnc(C)c(C5=CCOCC5)c4O)cc3F)ccnc2c1` [Compound 1-4, 5-(3,6-Dihydro-2H-pyran-4-yl)-N-[3-fluoro-4-[(7-methoxy-1,5-naphthyridin-4-yl)oxy]phenyl]-4-hydroxy-6-methylpyridine-3-carboxamide], the IC50 in experiment [1] and in experiment [2] was no more than 0.1 µM in each case.

`COc1ccc2nccc(Oc3ccc(NC(=O)c4cnc(C)c(C5=CCOCC5)c4O)cc3F)c2n1` [Compound 1-5, 5-(3,6-Dihydro-2H-pyran-4-yl)-N-[3-fluoro-4-[(6-methoxy-1,5-naphthyridin-4-yl)oxy]phenyl]-4-hydroxy-6-methylpyridine-3-carboxamide]: the results for the IC50 in experiment [1] and in experiment [2] were greater than 0.3 µM and no more than 0.1 µM, respectively.

For the molecule `COc1ccc2nccc(Oc3ccc(NC(=O)c4cnc(C)c(C5=CCCCC5)c4O)cc3F)c2n1` [Compound 1-6, 5-(Cyclohexen-1-yl)-N-[3-fluoro-4-[(6-methoxy-1,5-naphthyridin-4-yl)oxy]phenyl]-4-hydroxy-6-methylpyridine-3-carboxamide], the IC50 (as a rule, the concentration that gives 50% inhibition) is no more than 0.1 µM in experiment [1] and 0.1 to 0.3 µM in experiment [2].

Turning to `COc1ccc2nccc(Oc3ccc(NC(=O)c4cnc(C)c(C5=CCCC5)c4O)cc3F)c2n1` [Compound 1-7, 5-(Cyclopenten-1-yl)-N-[3-fluoro-4-[(6-methoxy-1,5-naphthyridin-4-yl)oxy]phenyl]-4-hydroxy-6-methylpyridine-3-carboxamide], the IC50 in experiment [1] and in experiment [2] was no more than 0.1 µM each time.

As for `COc1cnc2c(Oc3ccc(NC(=O)c4cnc(C)c(C5=CCCC5)c4O)cc3F)ccnc2c1` [Compound 1-9, 5-(Cyclopenten-1-yl)-N-[3-fluoro-4-[(7-methoxy-1,5-naphthyridin-4-yl)oxy]phenyl]-4-hydroxy-6-methylpyridine-3-carboxamide], the IC50 in experiment [1] and in experiment [2] was no more than 0.1 µM throughout.

Consider `COc1cc2nccc(Oc3ccc(NC(=O)c4cn(C)c(C)c(C5CCCC5)c4=O)cc3F)c2nc1OC` [Compound 2, 5-Cyclopentyl-N-[4-[(6,7-dimethoxy-1,5-naphthyridin-4-yl)oxy]-3-fluorophenyl]-1,6-dimethyl-4-oxopyridine-3-carboxamide], for which the IC50 in experiment [1] and in experiment [2] was no more than 0.1 µM each time.

Regarding `COc1cc2nccc(Oc3ccc(NC(=O)c4c(C)nc(C)c(C5=CCCCC5)c4O)cc3F)c2nc1OC` [Compound 2-3, 5-(Cyclohexen-1-yl)-N-[4-[(6,7-dimethoxy-1,5-naphthyridin-4-yl)oxy]-3-fluorophenyl]-4-hydroxy-2,6-dimethylpyridine-3-carboxamide], the half-maximal inhibitory concentration (IC50) in experiment [1] and in experiment [2] was no more than 0.1 µM throughout.

In the case of `C=C(C)c1c(C)nc(C)c(C(=O)Nc2cc(F)c(Oc3ccnc4cc(OC)c(OC)nc34)cc2F)c1O` [Compound 6, N-[4-[(6,7-Dimethoxy-1,5-naphthyridin-4-yl)oxy]-2,5-difluorophenyl]-4-hydroxy-2,6-dimethyl-5-prop-1-en-2-ylpyridine-3-carboxamide], the IC50 in experiment [1] and in experiment [2] was no more than 0.1 µM each time.

In the case of `COc1cnc2c(Oc3ccc(NC(=O)c4cnc(C)c(C5=CCOCC5)c4O)cc3)ccnc2c1` [Compound 7, 5-(3,6-Dihydro-2H-pyran-4-yl)-4-hydroxy-N-[4-[(7-methoxy-1,5-naphthyridin-4-yl)oxy]phenyl]-6-methylpyridine-3-carboxamide], the IC50 in experiment [1] and in experiment [2] was no more than 0.1 µM in each case.

Take `COc1cc2nccc(Oc3ccc(NC(=O)c4cn(CCF)c(C)c(C5=CCCCC5)c4=O)cc3F)c2nc1OC` [Compound 8, 5-(Cyclohexen-1-yl)-N-[4-[(6,7-dimethoxy-1,5-naphthyridin-4-yl)oxy]-3-fluorophenyl]-1-(2-fluoroethyl)-6-methyl-4-oxopyridine-3-carboxamide]: the IC50 in experiment [1] and in experiment [2] was no more than 0.1 µM each time.

As for `COc1cc2nccc(Oc3ccc(NC(=O)c4c(C)nc(C)c(C(C)C)c4O)cc3)c2nc1OC` [Compound 9, N-[4-[(6,7-Dimethoxy-1,5-naphthyridin-4-yl)oxy]phenyl]-4-hydroxy-2,6-dimethyl-5-propan-2-ylpyridine-3-carboxamide], the IC50 in experiment [1] and in experiment [2] was no more than 0.1 µM throughout.

Consider `COc1cc2nccc(Oc3cc(F)c(NC(=O)c4c(C)nc(C)c(C(C)C)c4O)cc3F)c2nc1OC` [Compound 10, N-[4-[(6,7-Dimethoxy-1,5-naphthyridin-4-yl)oxy]-2,5-difluorophenyl]-4-hydroxy-2,6-dimethyl-5-propan-2-ylpyridine-3-carboxamide], for which the IC50 in experiment [1] and in experiment [2] was no more than 0.1 µM throughout.

Regarding `COc1cc2nccc(Oc3ccc(NC(=O)c4cn(CCF)c(C)c(C5=CCCC5)c4=O)cc3F)c2nc1OC` [Compound 11, 5-(Cyclopenten-1-yl)-N-[4-[(6,7-dimethoxy-1,5-naphthyridin-4-yl)oxy]-3-fluorophenyl]-1-(2-fluoroethyl)-6-methyl-4-oxopyridine-3-carboxamide], the IC50 in experiment [1] and in experiment [2] was no more than 0.1 µM throughout.

With `COc1cnc2c(Oc3ccc(NC(=O)c4cn(C)c(C)c(C5=CCOCC5)c4=O)cc3F)ccnc2c1` [Compound 12, 5-(3,6-Dihydro-2H-pyran-4-yl)-N-[3-fluoro-4-[(7-methoxy-1,5-naphthyridin-4-yl)oxy]phenyl]-1,6-dimethyl-4-oxopyridine-3-carboxamide], the IC50 in experiment [1] is no more than 0.1 µM; in experiment [2] it was greater than 0.3 µM.

For the molecule `COc1cc2nccc(Oc3ccc(NC(=O)c4cn(CCF)c(C)c(C5CCCC5)c4=O)cc3F)c2nc1OC` [Compound 13, 5-Cyclopentyl-N-[4-[(6,7-dimethoxy-1,5-naphthyridin-4-yl)oxy]-3-fluorophenyl]-1-(2-fluoroethyl)-6-methyl-4-oxopyridine-3-carboxamide], the IC50 in experiment [1] and in experiment [2] was no more than 0.1 µM throughout.

`COc1cc2nccc(Oc3ccc(NC(=O)c4c(C)cc(C)n(C5=CCCC5)c4=O)cc3F)c2nc1OC` [Compound 14, 1-(Cyclopenten-1-yl)-N-[4-[(6,7-dimethoxy-1,5-naphthyridin-4-yl)oxy]-3-fluorophenyl]-4,6-dimethyl-2-oxopyridine-3-carboxamide]: the IC50 in experiment [1] and in experiment [2] was no more than 0.1 µM in each case.
